Measured values as given in ChEMBL document CHEMBL2440080, “Synthesis and biological evaluation of novel acylhydrazone derivatives as potential antitumor agents” (Bioorg Med Chem, 2013).

Test system: MOLT-4
Experiment: Cytotoxicity against human MOLT4 cells after 48 hrs by sulforhodamine B assay
Type: functional
Conditions: MOLT-4, 48 h

| SMILES | GI50 [nM] |
| --- | --- |
| O=C(N/N=C/c1cc(Cl)ccc1O)c1ccccc1Nc1ccnc(C(F)(F)F)c1 | 200 |
| CCOc1cccc(/C=N/NC(=O)c2cccc(Nc3ccnc(C(F)(F)F)c3)c2)c1O | 316 |

Test system: SNB-75
Experiment: Cytotoxicity against human SNB75 cells after 48 hrs by sulforhodamine B assay
Type: functional
Conditions: SNB-75, 48 h

| SMILES | GI50 [nM] |
| --- | --- |
| O=C(N/N=C/c1cc(Cl)ccc1O)c1ccccc1Nc1ccnc(C(F)(F)F)c1 | 316 |
| CCOc1cccc(/C=N/NC(=O)c2cccc(Nc3ccnc(C(F)(F)F)c3)c2)c1O | 7940 |

Test system: CCRF-CEM
Experiment: Cytotoxicity against human CCRF-CEM cells after 48 hrs by sulforhodamine B assay
Type: functional
Conditions: not given

| SMILES | GI50 [nM] |
| --- | --- |
| O=C(N/N=C/c1cc(Cl)ccc1O)c1ccccc1Nc1ccnc(C(F)(F)F)c1 | 79.4 |
| CCOc1cccc(/C=N/NC(=O)c2cccc(Nc3ccnc(C(F)(F)F)c3)c2)c1O | 251 |

Test system: U-251
Experiment: Cytotoxicity against human U251 cells after 48 hrs by sulforhodamine B assay
Type: functional
Conditions: U-251, 48 h

| SMILES | GI50 [nM] |
| --- | --- |
| O=C(N/N=C/c1cc(Cl)ccc1O)c1ccccc1Nc1ccnc(C(F)(F)F)c1 | 316 |
| CCOc1cccc(/C=N/NC(=O)c2cccc(Nc3ccnc(C(F)(F)F)c3)c2)c1O | 1260 |

Test system: NCI-H322M
Experiment: Cytotoxicity against human NCI-H322M cells after 48 hrs by sulforhodamine B assay
Type: functional
Conditions: not given

| SMILES | GI50 [nM] |
| --- | --- |
| O=C(N/N=C/c1cc(Cl)ccc1O)c1ccccc1Nc1ccnc(C(F)(F)F)c1 | 398 |
| CCOc1cccc(/C=N/NC(=O)c2cccc(Nc3ccnc(C(F)(F)F)c3)c2)c1O | 631 |

Test system: RPMI-8226
Experiment: Cytotoxicity against human RPMI8226 cells after 48 hrs by sulforhodamine B assay
Type: functional
Conditions: RPMI-8226, 48 h

| SMILES | GI50 [nM] |
| --- | --- |
| O=C(N/N=C/c1cc(Cl)ccc1O)c1ccccc1Nc1ccnc(C(F)(F)F)c1 | 158 |
| CCOc1cccc(/C=N/NC(=O)c2cccc(Nc3ccnc(C(F)(F)F)c3)c2)c1O | 2000 |

Test system: ACHN
Experiment: Cytotoxicity against human ACHN cells after 48 hrs by sulforhodamine B assay
Type: functional
Conditions: not given

| SMILES | GI50 [nM] |
| --- | --- |
| O=C(N/N=C/c1cc(Cl)ccc1O)c1ccccc1Nc1ccnc(C(F)(F)F)c1 | 316 |
| CCOc1cccc(/C=N/NC(=O)c2cccc(Nc3ccnc(C(F)(F)F)c3)c2)c1O | 1000 |

Test system: RXF 393
Experiment: Cytotoxicity against human RXF393 cells after 48 hrs by sulforhodamine B assay
Type: functional
Conditions: RXF 393, 48 h

| SMILES | GI50 [nM] |
| --- | --- |
| O=C(N/N=C/c1cc(Cl)ccc1O)c1ccccc1Nc1ccnc(C(F)(F)F)c1 | 398 |
| CCOc1cccc(/C=N/NC(=O)c2cccc(Nc3ccnc(C(F)(F)F)c3)c2)c1O | 1000 |

Test system: KM12
Experiment: Cytotoxicity against human KM12 cells after 48 hrs by sulforhodamine B assay
Type: functional
Conditions: KM12, 48 h

| SMILES | GI50 [nM] |
| --- | --- |
| O=C(N/N=C/c1cc(Cl)ccc1O)c1ccccc1Nc1ccnc(C(F)(F)F)c1 | 631 |
| CCOc1cccc(/C=N/NC(=O)c2cccc(Nc3ccnc(C(F)(F)F)c3)c2)c1O | 1260 |

Test system: HOP-62
Experiment: Cytotoxicity against human HOP62 cells after 48 hrs by sulforhodamine B assay
Type: functional
Conditions: HOP-62, 48 h

| SMILES | GI50 [nM] |
| --- | --- |
| O=C(N/N=C/c1cc(Cl)ccc1O)c1ccccc1Nc1ccnc(C(F)(F)F)c1 | 251 |
| CCOc1cccc(/C=N/NC(=O)c2cccc(Nc3ccnc(C(F)(F)F)c3)c2)c1O | 794 |

Test system: SF-295
Experiment: Cytotoxicity against human SF295 cells after 48 hrs by sulforhodamine B assay
Type: functional
Conditions: SF-295, 48 h

| SMILES | GI50 [nM] |
| --- | --- |
| O=C(N/N=C/c1cc(Cl)ccc1O)c1ccccc1Nc1ccnc(C(F)(F)F)c1 | 398 |
| CCOc1cccc(/C=N/NC(=O)c2cccc(Nc3ccnc(C(F)(F)F)c3)c2)c1O | 2000 |

Test system: IGROV-1
Experiment: Cytotoxicity against human IGROV1 cells after 48 hrs by sulforhodamine B assay
Type: functional
Conditions: IGROV-1, 48 h

| SMILES | GI50 [nM] |
| --- | --- |
| O=C(N/N=C/c1cc(Cl)ccc1O)c1ccccc1Nc1ccnc(C(F)(F)F)c1 | 316 |
| CCOc1cccc(/C=N/NC(=O)c2cccc(Nc3ccnc(C(F)(F)F)c3)c2)c1O | 794 |

Test system: HCT-116
Experiment: Cytotoxicity against human HCT116 cells after 48 hrs by sulforhodamine B assay
Type: functional
Conditions: HCT-116, 48 h

| SMILES | GI50 [nM] |
| --- | --- |
| O=C(N/N=C/c1cc(Cl)ccc1O)c1ccccc1Nc1ccnc(C(F)(F)F)c1 | 200 |
| CCOc1cccc(/C=N/NC(=O)c2cccc(Nc3ccnc(C(F)(F)F)c3)c2)c1O | 398 |

Test system: SF-268
Experiment: Cytotoxicity against human SF268 cells after 48 hrs by sulforhodamine B assay
Type: functional
Conditions: SF-268, 48 h

| SMILES | GI50 [nM] |
| --- | --- |
| O=C(N/N=C/c1cc(Cl)ccc1O)c1ccccc1Nc1ccnc(C(F)(F)F)c1 | 251 |
| CCOc1cccc(/C=N/NC(=O)c2cccc(Nc3ccnc(C(F)(F)F)c3)c2)c1O | 631 |

Test system: not listed separately
Experiment: Cytotoxicity against human EKVX cells after 48 hrs by sulforhodamine B assay
Type: functional
Conditions: not given

| SMILES | GI50 [nM] |
| --- | --- |
| O=C(N/N=C/c1cc(Cl)ccc1O)c1ccccc1Nc1ccnc(C(F)(F)F)c1 | 200 |
| CCOc1cccc(/C=N/NC(=O)c2cccc(Nc3ccnc(C(F)(F)F)c3)c2)c1O | 794 |

Test system: CAKI-1
Experiment: Cytotoxicity against human CAKI-1 cells after 48 hrs by sulforhodamine B assay
Type: functional
Conditions: CAKI-1, 48 h

| SMILES | GI50 [nM] |
| --- | --- |
| O=C(N/N=C/c1cc(Cl)ccc1O)c1ccccc1Nc1ccnc(C(F)(F)F)c1 | 398 |
| CCOc1cccc(/C=N/NC(=O)c2cccc(Nc3ccnc(C(F)(F)F)c3)c2)c1O | 1000 |

Test system: OVCAR-3
Experiment: Cytotoxicity against human OVCAR3 cells after 48 hrs by sulforhodamine B assay
Type: functional
Conditions: OVCAR-3, 48 h

| SMILES | GI50 [nM] |
| --- | --- |
| O=C(N/N=C/c1cc(Cl)ccc1O)c1ccccc1Nc1ccnc(C(F)(F)F)c1 | 501 |
| CCOc1cccc(/C=N/NC(=O)c2cccc(Nc3ccnc(C(F)(F)F)c3)c2)c1O | 200 |

Test system: NCI/ADR-RES
Experiment: Cytotoxicity against human NCI/ADR-RES cells after 48 hrs by sulforhodamine B assay
Type: functional
Conditions: not given

| SMILES | GI50 [nM] |
| --- | --- |
| O=C(N/N=C/c1cc(Cl)ccc1O)c1ccccc1Nc1ccnc(C(F)(F)F)c1 | 398 |
| CCOc1cccc(/C=N/NC(=O)c2cccc(Nc3ccnc(C(F)(F)F)c3)c2)c1O | 3160 |

Test system: M14
Experiment: Cytotoxicity against human M14 cells after 48 hrs by sulforhodamine B assay
Type: functional
Conditions: M14, 48 h

| SMILES | GI50 [nM] |
| --- | --- |
| O=C(N/N=C/c1cc(Cl)ccc1O)c1ccccc1Nc1ccnc(C(F)(F)F)c1 | 316 |
| CCOc1cccc(/C=N/NC(=O)c2cccc(Nc3ccnc(C(F)(F)F)c3)c2)c1O | 1260 |

Test system: OVCAR-4
Experiment: Cytotoxicity against human OVCAR4 cells after 48 hrs by sulforhodamine B assay
Type: functional
Conditions: OVCAR-4, 48 h

| SMILES | GI50 [nM] |
| --- | --- |
| O=C(N/N=C/c1cc(Cl)ccc1O)c1ccccc1Nc1ccnc(C(F)(F)F)c1 | 251 |
| CCOc1cccc(/C=N/NC(=O)c2cccc(Nc3ccnc(C(F)(F)F)c3)c2)c1O | 631 |

Test system: T47D
Experiment: Cytotoxicity against human T47D cells after 48 hrs by sulforhodamine B assay
Type: functional
Conditions: not given

| SMILES | GI50 [nM] |
| --- | --- |
| O=C(N/N=C/c1cc(Cl)ccc1O)c1ccccc1Nc1ccnc(C(F)(F)F)c1 | 794 |
| CCOc1cccc(/C=N/NC(=O)c2cccc(Nc3ccnc(C(F)(F)F)c3)c2)c1O | 631 |

Test system: HCT-15
Experiment: Cytotoxicity against human HCT15 cells after 48 hrs by sulforhodamine B assay
Type: functional
Conditions: HCT-15, 48 h

| SMILES | GI50 [nM] |
| --- | --- |
| O=C(N/N=C/c1cc(Cl)ccc1O)c1ccccc1Nc1ccnc(C(F)(F)F)c1 | 158 |
| CCOc1cccc(/C=N/NC(=O)c2cccc(Nc3ccnc(C(F)(F)F)c3)c2)c1O | 2000 |

Test system: TK-10
Experiment: Cytotoxicity against human TK10 cells after 48 hrs by sulforhodamine B assay
Type: functional
Conditions: TK-10, 48 h

| SMILES | GI50 [nM] |
| --- | --- |
| O=C(N/N=C/c1cc(Cl)ccc1O)c1ccccc1Nc1ccnc(C(F)(F)F)c1 | 501 |
| CCOc1cccc(/C=N/NC(=O)c2cccc(Nc3ccnc(C(F)(F)F)c3)c2)c1O | 1260 |

Test system: NCI-H460
Experiment: Cytotoxicity against human NCI-H460 cells after 48 hrs by sulforhodamine B assay
Type: functional
Conditions: NCI-H460, 48 h

| SMILES | GI50 [nM] |
| --- | --- |
| O=C(N/N=C/c1cc(Cl)ccc1O)c1ccccc1Nc1ccnc(C(F)(F)F)c1 | 316 |
| CCOc1cccc(/C=N/NC(=O)c2cccc(Nc3ccnc(C(F)(F)F)c3)c2)c1O | 1000 |

Test system: HOP-92
Experiment: Cytotoxicity against human HOP92 cells after 48 hrs by sulforhodamine B assay
Type: functional
Conditions: HOP-92, 48 h

| SMILES | GI50 [nM] |
| --- | --- |
| O=C(N/N=C/c1cc(Cl)ccc1O)c1ccccc1Nc1ccnc(C(F)(F)F)c1 | 501 |
| CCOc1cccc(/C=N/NC(=O)c2cccc(Nc3ccnc(C(F)(F)F)c3)c2)c1O | 3160 |

Test system: OVCAR-8
Experiment: Cytotoxicity against human OVCAR8 cells after 48 hrs by sulforhodamine B assay
Type: functional
Conditions: OVCAR-8, 48 h

| SMILES | GI50 [nM] |
| --- | --- |
| O=C(N/N=C/c1cc(Cl)ccc1O)c1ccccc1Nc1ccnc(C(F)(F)F)c1 | 631 |
| CCOc1cccc(/C=N/NC(=O)c2cccc(Nc3ccnc(C(F)(F)F)c3)c2)c1O | 794 |

Test system: SR
Experiment: Cytotoxicity against human SR cells after 48 hrs by sulforhodamine B assay
Type: functional
Conditions: not given

| SMILES | GI50 [nM] |
| --- | --- |
| O=C(N/N=C/c1cc(Cl)ccc1O)c1ccccc1Nc1ccnc(C(F)(F)F)c1 | 316 |
| CCOc1cccc(/C=N/NC(=O)c2cccc(Nc3ccnc(C(F)(F)F)c3)c2)c1O | 158 |

Test system: BT-549
Experiment: Cytotoxicity against human BT549 cells after 48 hrs by sulforhodamine B assay
Type: functional
Conditions: BT-549, 48 h

| SMILES | GI50 [nM] |
| --- | --- |
| O=C(N/N=C/c1cc(Cl)ccc1O)c1ccccc1Nc1ccnc(C(F)(F)F)c1 | 794 |
| CCOc1cccc(/C=N/NC(=O)c2cccc(Nc3ccnc(C(F)(F)F)c3)c2)c1O | 1580 |

Test system: LOX IMVI
Experiment: Cytotoxicity against human LOXIMVI cells after 48 hrs by sulforhodamine B assay
Type: functional
Conditions: not given

| SMILES | GI50 [nM] |
| --- | --- |
| O=C(N/N=C/c1cc(Cl)ccc1O)c1ccccc1Nc1ccnc(C(F)(F)F)c1 | 251 |
| CCOc1cccc(/C=N/NC(=O)c2cccc(Nc3ccnc(C(F)(F)F)c3)c2)c1O | 631 |

Test system: DU-145
Experiment: Cytotoxicity against human DU145 cells after 48 hrs by sulforhodamine B assay
Type: functional
Conditions: DU-145, 48 h

| SMILES | GI50 [nM] |
| --- | --- |
| O=C(N/N=C/c1cc(Cl)ccc1O)c1ccccc1Nc1ccnc(C(F)(F)F)c1 | 316 |
| CCOc1cccc(/C=N/NC(=O)c2cccc(Nc3ccnc(C(F)(F)F)c3)c2)c1O | 631 |

Test system: PC-3
Experiment: Cytotoxicity against human PC3 cells after 48 hrs by sulforhodamine B assay
Type: functional
Conditions: PC-3, 48 h

| SMILES | GI50 [nM] |
| --- | --- |
| O=C(N/N=C/c1cc(Cl)ccc1O)c1ccccc1Nc1ccnc(C(F)(F)F)c1 | 631 |
| CCOc1cccc(/C=N/NC(=O)c2cccc(Nc3ccnc(C(F)(F)F)c3)c2)c1O | 1000 |

Test system: HL-60(TB)
Experiment: Cytotoxicity against human HL-60(TB) cells after 48 hrs by sulforhodamine B assay
Type: functional
Conditions: HL-60, 48 h

| SMILES | GI50 [nM] |
| --- | --- |
| O=C(N/N=C/c1cc(Cl)ccc1O)c1ccccc1Nc1ccnc(C(F)(F)F)c1 | 316 |
| CCOc1cccc(/C=N/NC(=O)c2cccc(Nc3ccnc(C(F)(F)F)c3)c2)c1O | 251 |

Test system: UACC-62
Experiment: Cytotoxicity against human UACC62 cells after 48 hrs by sulforhodamine B assay
Type: functional
Conditions: UACC-62, 48 h

| SMILES | GI50 [nM] |
| --- | --- |
| O=C(N/N=C/c1cc(Cl)ccc1O)c1ccccc1Nc1ccnc(C(F)(F)F)c1 | 398 |
| CCOc1cccc(/C=N/NC(=O)c2cccc(Nc3ccnc(C(F)(F)F)c3)c2)c1O | 631 |
